Assay results from patent US20260263638A1, “COMPOSITIONS AND METHODS TO IMPROVE RNA PROPERTIES USING BASE, PHOSPHODIESTER LINKAGE, SUGAR BACKBONE, AND CAP MODIFICATIONS” (The Broad Institute, Inc., priority 2023, published 2026).
Entries after “also recorded” stand apart in the source; their conditions may differ. Strand notation (5' to 3'): a small letter for the sugar, then the base; units joined by * are phosphorothioate-linked, units joined directly phosphodiester-linked; [ ] holds rarer units or linkages, { } end groups; capitals alone tell only the bases. [5OctU] = 5-octadiynyl-2'-deoxyuridine, alkyne click handle; d = 2'-deoxy (DNA); {3P} = phosphate; r = 2'-OH (RNA); {P} = phosphate

Columns and labels:
[1] = tested on: rabbit reticulocyte lysate (RRL) in vitro translation system; experiment: In vitro translation assay in rabbit reticulocyte lysate with or without 4EGI-1; assay type: biochemical
Experimental: Firefly luciferase reporter mRNA with one cap and Nanoluc mRNA with two caps were synthesized according to protocol mentioned above. The in vitro translation was conducted using Rabbit Reticulocyte Lysate (Nuclease-treated) [Promega, L4960] according to manufacturer's protocol with some modifications. 30% or 40% of rabbit reticulocyte lysate, 4% of SUPERaseIn RNase Inhibitor, amino acid mixture and indicated mRNA were added to the reaction with 4EGI-1 inhibitor (600 μM) or DMSO as control in 50 μL reaction. The reactions were incubated at 30° C. for an hour. Then, […] of the reaction mixture was diluted by 10-fold with PBS. The fluorescence of firefly luciferase was measured with Dual-Glo Luciferase Assay System [Promega, E2920] and the fluorescence of Nanoluc was measured with Nano-Glo Luciferase Assay System [Promega, N1110] according to manufacturer's protocol.

[2] = In vivo imaging of NanoLuc after retro-orbital mRNA-LNP injection; details: mice; for NLuc translation of QRNA relative to uncapped m1ψ-circRNA precursor (circRNA-OU): LNP retro-orbital
Experimental: All animal procedures followed animal care guidelines approved by the Institutional Animal Care and Use Committee (IACUC) of the Broad Institute of MIT and Harvard under animal protocol #0255-08-19. Animal experiments were conducted in compliance with IACUC policies and NIH guidelines. The BALB/cj (male, 6~8 weeks old) mice used for in vivo NanoLuc assay in this study were purchased from The Jackson Laboratory (JAX). The C57BL/6 mice (female, 7 weeks old), used for hEPO assay in this study were purchased from The Jackson Laboratory (JAX).
mRNA diluted in 50 mM citrate buffer (pH 4) and lipid mix (37.5 mM in ethanol) containing 50 mol % SM-102, 10 mol % DSPC, 38.5 mol % Cholesterol, and 1.5 mol % DMG-PEG2000 were assembled into LNP using a NanoAssemblr Spark instrument [Precision Nanosystems]. Upon formulation, mRNA-LNPs were diluted in 12 mL 1×PBS solution and the buffer was exchanged by concentrating with a 30 kDa spin filter [MilliporeSigma, UFC901008] to remove residue ethanol. Concentrations and encapsulation efficiency of mRNA were determined using Quant-it RiboGreen RNA Assay Kit [ThermoFisher, R11490]. 1 μg NanoLuc or hEPO mRNA-LNP in a total volume of 100 μL was injected through retro orbital injection into each mouse. Four mice were used for each condition of each experiment (NanoLuc imaging, hEPO ELISA, and reticulocyte counting). For NanoLuc imaging, PBS injection was used as negative control. For hEPO/reticulocyte experiments, poly(C)-LNP complex was used as negative control.
In vivo activity of NanoLuc was measured using a Competent IVIS-Perkin Elmer IVIS Spectrum CT System [Perkin Elmer]. At each time point, mice were anesthetized with isoflurane. The fluorofurimazine substrate with poloxamer-407 [Promega, CS320501] was freshly reconstituted in PBS to a final concentration of ~5.1 mM and injected intraperitoneally (i.p.) into the mice at a dose of ~22 nmol per gram body weight. Mice were imaged 5 mins post injection using auto exposure settings. The luminescent activity was quantified using Aura 4.0 imaging software. The background was determined by including mice injected with poly C-LNP negative control and subtracted from each measurement.

[3] = tested on: HeLa cells; experiment: NLuc bioluminometry of circRNA/QRNA (Fluc transfection control); assay type: cell-based
Experimental: (§1) Synthetic linear mRNA encoding NanoLuciferase (NLuc) was prepared from DNA template by IVT with 100% m1ψ substitution. The triphosphorylated mRNA after IVT was then treated with Calf Intestinal Alkaline Phosphatase (CIAP) to yield 5′/3′-hydroxyl mRNA. A chemically synthesized oligonucleotide with a branched m7G cap and 5′/3′-phosphates was then ligated to the 5′/3′-hydroxyl mRNA by T4 RNA ligase, which ligates the 5′-phosphate on the oligo and 3′-hydroxyl of the mRNA. The ligation product was then further treated with RtcB ligase, which ligates the 5′-hydroxyl and 3′-phosphate ends to enable intramolecular circularization. […] Using one primer only produced no fragmentation but only linearization, confirming successful circularization. Using double primers produced fragments flanking the branched region, where branched topology was confirmed by gel shift. […] NLuc bioluminometry was measured 8 hrs post transfection and normalized Firefly luciferase as transfection control. Mean±s.e.m., n=3. P values were calculated by ordinary one-way ANOVA (alpha=0.05), with multiple comparisons to circ-NLuc with only 5-octadiynyl deoxyuridine (OU) handle (construct 45). ****P<0.0001, n.s. P>0.05. […] QRNA with m7G (construct 48) was compared. n=3, biological replicates. Mean±sem. P values were calculated by ordinary one-way ANOVA with multiple comparisons against construct 61 without any cotransfected capped oligos (Dunnett's multiple comparison test). […] P values were calculated by unpaired two-sided t-test.
HeLa cells [ATCC, CCL-2] were maintained in DMEM culture media [ThermoFisher Scientific, 119951] containing 10% FBS and 1% penicillin-streptomycin [ThermoFisher Scientific, 15070063] in a 37° C. incubator with 5% CO2 and passaged at a ratio of 1:10 every 3 days. […] Cells were lysed and luciferase activity was measured using the Promega Dual Glo Luciferase Assay System [Promega, E2920]. Firefly luminescence/Renilla luminescence for each well was used as mRNA activity readout. […]

[4] = tested on: HeLa cells; experiment: Two-ORF FLuc/3xHiBiT reporter bioluminometry; assay type: cell-based; details: 8 hrs post transfection
Experimental: as §1
Finally, Applicant evaluated if the branched cap on the QRNA has the ability to initiate translation of open reading frames (ORFs) upstream of it. […] FLuc and HiBiT bioluminometry were evaluated 8 hrs post transfection.
Lastly, to test whether the branched cap could drive the translation for upstream AUG via either proximity looping or bidirectional ribosome scanning to opt for upstream open reading frames (ORFs), Applicant generated a two-ORF reporter mRNA that contained a 5′ full-length FLuc ORF and a 3′ 3×HiBIT ORF with an out-of-frame start codon from the FLuc ORF (construct 62). […]

[5] = target: eIF4E (UniProt P06730 P06730:1-217); experiment: EMSA; 50 mM KCl, 10 mM Tris-HCl pH 7.6, 1 mM DTT, 4 C; details: tags: His tag, Cayman Chemical 25150
Experimental: Capped oligonucleotides were labeled on the 3′ end using AF647 labeled cytidine-5′-phosphate-3′-(6-aminohexyl) phosphate [Jena Bioscience, NU-1706-AF647] and T4 RNA ligase ligated AF647-labeled cytidine onto the capped oligos using manufacturer's protocols. Oligos were then incubated in the binding buffer (1 mM DTT, 50 mM KCl, 10 mM Tris-HCl (pH 7.6), Novex Hi-Density TBE Sample Buffer [Invitrogen, LC6678]) with varying eIF4E-His [Cayman Chemical Inc, 25150] concentrations prepared by sequential dilutions from the stock solution. The oligos and […] were incubated at 4° C. for 30 mins and characterized by EMSA with Novex TBE Gels, 4-20% [Invitrogen, EC6225BOX] at 4° C. AF647 labeled oligos were imaged with BioRad ChemiDoc MP Imaging System [12003154] and band intensities were quantified using ImageJ. For Kd calculation, the proportions of bound were plotted against eIF4E concentration using GraphPad Prism (Specific binding with Hill slope).
To gain insights into the mechanism of how the topologically branched internal cap initiates mRNA translation, Applicant used fluorophore-labeled mono- or dual-capped oligonucleotides and measured their affinity to eIF4E through EMSA.

Sequence of eIF4E (P06730 whole entry, one chain of several): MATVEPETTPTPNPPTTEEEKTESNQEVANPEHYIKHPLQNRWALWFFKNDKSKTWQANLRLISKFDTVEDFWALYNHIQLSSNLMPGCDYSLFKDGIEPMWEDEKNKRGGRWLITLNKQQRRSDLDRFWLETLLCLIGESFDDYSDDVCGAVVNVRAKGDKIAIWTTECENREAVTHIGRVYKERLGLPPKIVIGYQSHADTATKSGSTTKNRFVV

Molecule: O=C(O)C(Cc1ccccc1[N+](=O)[O-])=NNc1nc(-c2ccc(Cl)c(Cl)c2)cs1 (mixture of isomers) [4EGI-1]
- Translation of mono- and dual-capped mRNA in RRL ([1]; 600 μM 4EGI-1 coupled with reduction of RRL % to 30%): almost completely halted translation
- Translation of mono- and dual-capped mRNA in RRL in presence of 4EGI-1 ([1]; 4EGI-1 600 μM or DMSO): inhibited translation of dual-capped mRNA; also recorded: significantly reduced

Molecule: construct 49: m1ψ NLuc QRNA with LNAm7G branched cap (SEQ ID NO: 115) ({P}-rArArArArArArAd[5OctU]rArArArArArA-{3P}; ligated into m1Ψ circRNA, LNA-m7G-capped LNA/2'-OMe branch oligo clicked at octadiynyl-dU)
- NLuc translation of QRNA relative to uncapped m1ψ-circRNA precursor (circRNA-OU) ([2]; 8 hrs): 17 ×
- NLuc translation of QRNA relative to uncapped m1ψ-circRNA precursor (circRNA-OU) ([2]; 24 hrs): 30 ×
- NLuc translation of QRNA relative to uncapped m1ψ-circRNA precursor (circRNA-OU) ([2]; 48 hrs): 59 ×
- Time of peak NLuc bioluminescence / translation in vivo ([2]; LNP, retro-orbital injection): 24 h
- NLuc protein production increase of modified circRNA/QRNA ([3]; HeLa cells, 8 hrs post transfection, compared to circ-NLuc with only OU handle (construct 45)): up to 144 fold

Molecule: construct 64: two-ORF FLuc-3×HiBiT QRNA with LNAm7G branched cap (SEQ ID NO: 119) ({P}-rArArArArArArAd[5OctU]rArArArArArA-{3P}; ligated into circRNA, LNA-m7G-capped LNA/2'-OMe branch oligo clicked at octadiynyl-dU, further chemistry not fully specified)
- FLuc ORF expression, QRNA vs circRNA (uncapped control) [4]: 166 fold
- HiBiT ORF expression, QRNA vs circRNA (uncapped control) [4]: 18.7 fold
- Translation of upstream HiBiT and downstream FLuc ORFs, result in words [4]: both the HiBiT and FLuc ORFs were enhanced

Molecule: AGAUAAAUAAAAAA (ssRNA, 5' m7G cap; 5-octadiynyl-dU at position 8) [1xm7G-OU (28)]
- Kd ([5]; label: 3' AF647-cytidine): 2210 nM

B1: 2xLNAm7G dual-capped branched (42) (ssRNA)
RNA 1: AGAUAAAUAAAAAA
RNA 2: AGAGAUAA
modifications: LNA-m7G cap on both 5' ends; second strand 3'-azide clicked to 5-octadiynyl-dU at position 8 of first strand
- Kd ([5]; label: AF647-cytidine, branched): 1280 nM

B2: construct S19: Bn7G-capped Nluc QRNA with globin UTRs, TGT/preQ1-azide labeled, uridine-containing (SEQ ID NO: 133) (nucleic acid)
chain: UAGUCUCGAGCUGGUACUGCAUGCACGCAAUGCUAGCUGCCCCUUUCCCGUCCUGGGUACCCCGAGUCUCCCCCGACCUCGGGUCCCAGGUAUGCUCCCACCUCCACCUGCCCCACUCACCACCUCUGCUAGUUCCAGACACCUCCCAAGCACGCAGCAAUGCAGCUCAAAACGCUUAGCCUAGCCACACCCCCACGGGAAACAGCAGUGAUUAACCUUUAGCAAUAAACGAAAGUUUAACUAAGCUAUACUAACCCCAGGGUUGGUCAAUUUCGUGCCAGCCACACCCUGGAGCUAGCAAAAAAAAAAAAAAAAAAAAAAAAAAAAAAAAAAAAAAACUCAGUAGAUGUUUUCUUGGGUUAAUUGAGGCCUGAGUAUAAGGUGACUUAUACUUGUAAUCUAUCUAAACGGGGAACCUCUCUAGUAGACAAUCCCGUGCUAAAUUGUAGGACUGCCCUUUAAUAAAUACUUCUAUAUUUAAAGAGGUAUUUAUGAAAAGCGGAAUUUAUCAGAUUAAAAAUACUUUCUCUAGAGUCGACCUGCAG
modifications: Bn7G cap; TGT/preQ1-azide label
- Nluc translation of QRNA vs circRNA, result in words ([3]; circRNA with and without IRES, uridine-containing): translated much more efficiently than its circRNA counterpart
